pIC50: −log10 of the molar value.
target: TRKA (Homo sapiens (Human), UniProt P04629); assay: Isolated TRK enzyme assay (HTRF KinEASE-TK), PV3144 TrkA enzyme assay; assay type: biochemical; conditions: arithmetic mean where more than one reading
Experimental: Isolated TRK Enzyme assays use the HTRF KinEASE-TK kit (Cisbio Cat#62TK0PEJ) with recombinant His-tagged cytoplasmic domains of each TRK receptor sourced from Invitrogen (see table below). This activity-assay measures the phosphorylation of tyrosine residues within a substrate from the HTRF kit which has been validated by Cisbio for a variety of tyrosine kinases including the TRK receptors.
0.5 mM stock solutions of test compounds are prepared and serially diluted in 100% DMSO. A standard curve using the compound of Example 135 disclosed in WO2005/116035 of 150 uM is also prepared on each test plate. High percentage effect (HPE) is defined by 150 uM (using the compound of Example 135 as disclosed in WO2005/116035) and 0% effect (ZPE) is defined by 100% DMSO. Greiner low volume black plates containing 0.2 ul of serially diluted compound, standard and HPE/ZPE are created using the Bravo nanoliter dispenser.
1× enzyme buffer is prepared from 5× Enzymatic Buffer from the Cisbio KinEASE TK kit using MilliQ water. The buffer is then supplemented with 10 mM MgCI and 2 mM DTT (both from Sigma). In the case of TRKB, the buffer is also supplemented with 125 nM Supplement Enzymatic Buffer (SEB) from the Cisbio kit.
2× FAC of enzyme and 2× FAC ATP diluted in 1× complete enzyme buffer is incubated at room temperature for 20 minutes to preactivate the enzyme. Following this preactivation step, 5 ul/well of enzyme+ATP mix is added using a Multidrop Micro to the assay plate, spotted with 0.2 ul 100% DMSO compound. This is left for 20 mins at room temperature before adding 5 ul of 2 uM TK-substrate-Biotin (from the Cisbio kit) diluted in 1× enzyme buffer (1 uM FAC) using the Multidrop Micro. The reaction is incubated at room temperature for the optimized assay reaction time (see table). The reaction is stopped by adding 10 ul/well HTRF Detection Buffer containing 0.25 uM Streptavidin-XL665 (0.125 uM FAC) and 1:200 TK Antibody-Cryptate using a Multidrop.
After the Detection Reagent addition, plates are covered and incubated at room temperature for 60 minutes. HTRF signal is read using an Envision reader, measured as a ratio of emissions at two different wavelengths, 620 nm and 665 nm. […] Test compound data are expressed as percentage inhibition defined by HPE and ZPE values for each plate. Percentage inhibition in the presence of test compound is plotted against compound concentration on a log scale to determine an IC50 from the resultant sigmoid curve.
Where more than one reading was taken, the arithmetic mean is presented.

Sequence of TRKA (P04629 441-796): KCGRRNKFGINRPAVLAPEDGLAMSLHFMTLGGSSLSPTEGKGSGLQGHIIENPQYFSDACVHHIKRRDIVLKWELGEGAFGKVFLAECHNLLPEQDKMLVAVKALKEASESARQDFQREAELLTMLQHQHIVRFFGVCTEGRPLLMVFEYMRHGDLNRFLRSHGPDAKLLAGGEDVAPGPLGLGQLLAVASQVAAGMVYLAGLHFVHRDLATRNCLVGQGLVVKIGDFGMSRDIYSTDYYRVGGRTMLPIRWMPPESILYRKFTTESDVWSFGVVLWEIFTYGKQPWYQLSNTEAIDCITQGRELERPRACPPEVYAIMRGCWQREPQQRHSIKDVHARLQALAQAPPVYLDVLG

Row | Compound | pIC50
1 | CC(CO)n1cc(C(=O)c2cncc(NC(=O)Cc3ccc(Cl)cc3)c2)c2cncc(F)c21 (single isomer, unassigned) [Example 206, 2-(4-chlorophenyl)-N-(5-{[7-fluoro-1-(1-hydroxypropan-2-yl)-1H-pyrrolo[3,2-c]pyridin-3-yl]carbonyl}pyridin-3-yl)acetamide] | 7.68
2 | CC(CO)n1cc(C(=O)c2cncc(NC(=O)Cn3cc(C4CC4)nn3)c2)c2cncc(F)c21 (single isomer, unassigned) [Example 207, 2-(4-cyclopropyl-1H-1,2,3-triazol-1-yl)-N-(5-{[7-fluoro-1-(1-hydroxypropan-2-yl)-1H-pyrrolo[3,2-c]pyridin-3-yl]carbonyl}pyridin-3-yl)acetamide] | 6.75
3 | CC(CO)n1cc(C(=O)c2cncc(NC(=O)Cn3ccc(C(F)(F)F)n3)c2)c2cncc(F)c21 (single isomer, unassigned) [Example 208, N-(5-{[7-fluoro-1-(1-hydroxypropan-2-yl)-1H-pyrrolo[3,2-c]pyridin-3-yl]carbonyl}pyridin-3-yl)-2-[3-(trifluoromethyl)-1H-pyrazol-1-yl]acetamide] | 7.53
4 | CC(CO)n1cc(C(=O)c2cncc(NC(=O)Cn3ccc(C(F)(F)F)n3)c2)c2cncc(F)c21 (single isomer, unassigned) [Example 210, N-(5-{[7-fluoro-1-(1-hydroxypropan-2-yl)-1H-pyrrolo[3,2-c]pyridin-3-yl]carbonyl}pyridin-3-yl)-2-[3-(trifluoromethyl)-1H-pyrazol-1-yl]acetamide] | 7.34
5 | CC(CO)n1cc(C(=O)c2cncc(NC(=O)Cc3ccc(Cl)cn3)c2)c2cncc(F)c21 (single isomer, unassigned) [Example 211, 2-(5-chloropyridin-2-yl)-N-(5-{[7-fluoro-1-(1-hydroxypropan-2-yl)-1H-pyrrolo[3,2-c]pyridin-3-yl]carbonyl}pyridin-3-yl)acetamide] | 7.03
6 | CC(CO)n1cc(C(=O)c2cncc(NC(=O)Cc3ccc(F)cn3)c2)c2cncc(F)c21 (single isomer, unassigned) [Example 212, N-(5-{[7-fluoro-1-(1-hydroxypropan-2-yl)-1H-pyrrolo[3,2-c]pyridin-3-yl]carbonyl}pyridin-3-yl)-2-(5-fluoropyridin-2-yl)acetamide] | 6.32
7 | CC(CO)n1cc(C(=O)c2cncc(NC(=O)Cc3ccc(C#N)cc3)c2)c2cncc(F)c21 (single isomer, unassigned) [Example 213, 2-(4-cyanophenyl)-N-(5-{[7-fluoro-1-(1-hydroxypropan-2-yl)-1H-pyrrolo[3,2-c]pyridin-3-yl]carbonyl}pyridin-3-yl)acetamide] | 6.60
8 | CC(CO)n1cc(C(=O)c2cncc(NC(=O)Cn3ccc(C4CC4)n3)c2)c2cncc(F)c21 (single isomer, unassigned) [Example 215, 2-(3-cyclopropyl-1H-pyrazol-1-yl)-N-(5-{[7-fluoro-1-(1-hydroxypropan-2-yl)-1H-pyrrolo[3,2-c]pyridin-3-yl]carbonyl}pyridin-3-yl)acetamide] | 7.21
9 | CC(CO)n1cc(C(=O)c2cncc(NC(=O)Cn3cc(C(F)(F)F)nn3)c2)c2cncc(F)c21 (single isomer, unassigned) [Example 220, N-(5-{[7-fluoro-1-(1-hydroxypropan-2-yl)-1H-pyrrolo[3,2-c]pyridin-3-yl]carbonyl}pyridin-3-yl)-2-[4-(trifluoromethyl)-1H-1,2,3-triazol-1-yl]acetamide] | 6.80
10 | CC(CO)n1cc(C(=O)c2cncc(NC(=O)Cc3ccc(C(F)(F)F)cc3)c2)c2cncc(F)c21 (single isomer, unassigned) [Example 222, N-(5-{[7-fluoro-1-(1-hydroxypropan-2-yl)-1H-pyrrolo[3,2-c]pyridin-3-yl]carbonyl}pyridin-3-yl)-2-[4-(trifluoromethyl)phenyl]acetamide] | 7.79
11 | CC(CO)n1cc(C(=O)c2cncc(NC(=O)Cc3ccc(C(F)(F)F)cc3)c2)c2cncc(F)c21 (single isomer, unassigned) [Example 224, N-(5-{[7-fluoro-1-(1-hydroxypropan-2-yl)-1H-pyrrolo[3,2-c]pyridin-3-yl]carbonyl}pyridin-3-yl)-2-[4-(trifluoromethyl)phenyl]acetamide] | 7.81

More lines, now with the values ahead:

Row | pIC50 | Compound
12 | 7.69 | Cc1cc(C(F)(F)F)nn1CC(=O)Nc1cncc(C(=O)c2cn(C(C)CO)c3c(F)cncc23)c1 (single isomer, unassigned) [Example 216, N-(5-{[7-fluoro-1-(1-hydroxypropan-2-yl)-1H-pyrrolo[3,2-c]pyridin-3-yl]carbonyl}pyridin-3-yl)-2-[5-methyl-3-(trifluoromethyl)-1H-pyrazol-1-yl]acetamide]
13 | 6.38 | CC(CO)n1cc(C(=O)c2cncc(NC(=O)Cc3ccc(C#N)cc3)c2)c2cncc(F)c21 (single isomer, unassigned) [Example 217, 2-(4-cyanophenyl)-N-(5-{[7-fluoro-1-(1-hydroxypropan-2-yl)-1H-pyrrolo[3,2-c]pyridin-3-yl]carbonyl}pyridin-3-yl)acetamide]
14 | 6.37 | CC(CO)n1cc(C(=O)c2cncc(NC(=O)Cc3ccc(F)cn3)c2)c2cncc(F)c21 (single isomer, unassigned) [Example 218, N-(5-{[7-fluoro-1-(1-hydroxypropan-2-yl)-1H-pyrrolo[3,2-c]pyridin-3-yl]carbonyl}pyridin-3-yl)-2-(5-fluoropyridin-2-yl)acetamide]
15 | 7.82 | CC(CO)n1cc(C(=O)c2cncc(NC(=O)Cn3cc(C(F)(F)F)cn3)c2)c2cncc(F)c21 (single isomer, unassigned) [Example 219, N-(5-{[7-fluoro-1-(1-hydroxypropan-2-yl)-1H-pyrrolo[3,2-c]pyridin-3-yl]carbonyl}pyridin-3-yl)-2-[4-(trifluoromethyl)-1H-pyrazol-1-yl]acetamide]
16 | 7.56 | CC(CO)n1cc(C(=O)c2cncc(NC(=O)Cc3ccc(Cl)cc3)c2)c2cncc(F)c21 (single isomer, unassigned) [Example 223, 2-(4-chlorophenyl)-N-(5-{[7-fluoro-1-(1-hydroxypropan-2-yl)-1H-pyrrolo[3,2-c]pyridin-3-yl]carbonyl}pyridin-3-yl)acetamide]
17 | 7.33 | CC(CO)n1cc(C(=O)c2cncc(NC(=O)Cc3ccc(Cl)cn3)c2)c2cncc(F)c21 (single isomer, unassigned) [Example 225, 2-(5-chloropyridin-2-yl)-N-(5-{[7-fluoro-1-(1-hydroxypropan-2-yl)-1H-pyrrolo[3,2-c]pyridin-3-yl]carbonyl}pyridin-3-yl)acetamide]
18 | 7.95 | CC(CO)n1cc(C(=O)c2cncc(NC(=O)Cc3cccc(C(F)(F)F)c3)c2)c2cncc(F)c21 (single isomer, unassigned) [Example 226, N-(5-{[7-fluoro-1-(1-hydroxypropan-2-yl)-1H-pyrrolo[3,2-c]pyridin-3-yl]carbonyl}pyridin-3-yl)-2-[3-(trifluoromethyl)phenyl]acetamide]
19 | 7.61 | CC(CO)n1cc(C(=O)c2cncc(NC(=O)Cn3cc(C(F)(F)F)cn3)c2)c2cncc(F)c21 (single isomer, unassigned) [Example 227, N-(5-{[7-fluoro-1-(1-hydroxypropan-2-yl)-1H-pyrrolo[3,2-c]pyridin-3-yl]carbonyl}pyridin-3-yl)-2-[4-(trifluoromethyl)-1H-pyrazol-1-yl]acetamide]

Source: patent publication US9163021B2, “Pyrrolo[3,2-c]pyridine tropomyosin-related kinase inhibitors” (Pfizer Limited, priority 2012, dated 2015)
